Reference: US20120214862A1, “MODULATION OF FACTOR 7 EXPRESSION” (ISIS Pharmaceuticals, Inc., priority 2009, published 2012)
In the oligonucleotide strings, read from the 5' end, every base follows the letter of its sugar. An asterisk marks phosphorothioate; unmarked linkages are phosphodiester. Other units and linkages are bracketed, terminal groups are in braces. A string of capitals states the bases alone. e = 2'-O-(2-methoxyethyl) (MOE); [5mC] = 5-methylcytosine; d = 2'-deoxy (DNA)

tested on: human Factor 7 mRNA; assay: Antisense inhibition of human Factor 7 mRNA in HepB3 cells, lipofectin, 50 nM, real-time RT-PCR; assay type: cell-based; settings: HepB3 cells, lipofectin, 50 nM antisense oligonucleotide, approximately 24 hours, primer probe set RTS 2927, relative to untreated control
Method in brief: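 Cells plated at 4,000 per well were transfected and harvested after approximately 24 hours of treatment. Transcript levels, measured with primer probe set RTS 2927, were normalised to total RNA by RIBOGREEN®. Values are percent inhibition relative to untreated control cells.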

Substance | % Inhibition of human Factor 7 mRNA levels [%]
416537 (antisense eT*eG*eA*e[5mC]*e[5mC]*dA*d[5mC]*dT*d[5mC]*dT*dT*d[5mC]*d[5mC]*dG*dA*eG*e[5mC]*eA*eG*e[5mC]) [compound 416537] | 55
416538 (antisense e[5mC]*eG*eT*eG*eG*dA*d[5mC]*dT*dG*dA*dT*d[5mC]*d[5mC]*dA*dA*eA*eG*eG*eA*e[5mC]) [compound 416538] | 46
416539 (antisense eG*eA*e[5mC]*eA*eG*dA*dG*d[5mC]*d[5mC]*dT*dG*dA*dG*d[5mC]*dT*eT*eG*eG*e[5mC]*eA) [compound 416539] | 53
416540 (antisense eG*eG*eA*e[5mC]*eT*dG*dG*dT*dG*dT*d[5mC]*dA*dT*d[5mC]*dT*eG*eG*eG*eA*e[5mC]) [compound 416540] | 38
416541 (antisense e[5mC]*e[5mC]*eA*e[5mC]*e[5mC]*d[5mC]*dT*dT*dG*dG*dT*dG*d[5mC]*d[5mC]*d[5mC]*eA*eG*eA*eT*e[5mC]) [compound 416541] | 53
416542 (antisense e[5mC]*eA*eG*eG*eG*dT*dG*d[5mC]*d[5mC]*d[5mC]*dA*dT*d[5mC]*d[5mC]*dT*eA*eG*eT*e[5mC]*eA) [compound 416542] | 56
416543 (antisense eT*e[5mC]*e[5mC]*eT*eG*d[5mC]*dG*dA*dG*dT*dG*dG*dG*dA*dG*eT*eT*eG*eG*eA) [compound 416543] | 0
416544 (antisense eA*eT*e[5mC]*e[5mC]*e[5mC]*dA*dT*dT*dT*dT*d[5mC]*d[5mC]*d[5mC]*dA*dG*eG*eA*eG*e[5mC]*e[5mC]) [compound 416544] | 58
416545 (antisense eA*eG*eA*eA*eA*d[5mC]*dA*dT*d[5mC]*d[5mC]*d[5mC]*dA*dT*dT*dT*eT*e[5mC]*e[5mC]*e[5mC]*eA) [compound 416545] | 8
416546 (antisense e[5mC]*e[5mC]*eA*eG*eG*d[5mC]*dT*dG*dG*dT*dT*dT*dG*dG*dA*eG*eA*eA*eA*e[5mC]) [compound 416546] | 21
416547 (antisense eA*eT*eG*eA*eA*dA*dT*dT*d[5mC]*dT*dA*d[5mC]*d[5mC]*dT*dA*eA*eA*eG*eA*eT) [compound 416547] | 0
416548 (antisense eA*eG*eG*eT*eG*dA*dA*dT*dG*dA*dA*dA*dT*dT*d[5mC]*eT*eA*e[5mC]*e[5mC]*eT) [compound 416548] | 29
416550 (antisense eT*eG*eG*e[5mC]*eT*dG*dG*d[5mC]*dT*dG*dA*dG*dG*dA*dG*eA*e[5mC]*eA*eA*eT) [compound 416550] | 55
416551 (antisense e[5mC]*eA*eG*eA*eA*dA*d[5mC]*dA*d[5mC]*d[5mC]*d[5mC]*dA*dT*d[5mC]*d[5mC]*eT*e[5mC]*eT*eG*eA) [compound 416551] | 19
416552 (antisense eT*e[5mC]*eT*eG*e[5mC]*dA*d[5mC]*dA*dG*dG*dG*dT*dA*dG*dA*e[5mC]*e[5mC]*e[5mC]*eT*e[5mC]) [compound 416552] | 46
416553 (antisense eG*eG*eT*eT*e[5mC]*dT*d[5mC]*dT*dG*d[5mC]*dA*d[5mC]*dA*dG*dG*eG*eT*eA*eG*eA) [compound 416553] | 56

Substance | % Inhibition of human Factor 7 mRNA levels [%]
416554 (antisense eA*eA*eA*eG*eA*dT*d[5mC]*d[5mC]*d[5mC]*dA*d[5mC]*d[5mC]*dT*d[5mC]*dA*eA*eA*eG*eA*eG) [compound 416554] | 7
416555 (antisense eA*eA*eA*eG*eA*dT*d[5mC]*dA*dG*dG*d[5mC]*dA*dA*dA*dG*eA*eT*e[5mC]*e[5mC]*e[5mC]) [compound 416555] | 6
416556 (antisense eA*eT*eA*eG*e[5mC]*dT*dT*dT*dG*dA*dT*d[5mC]*d[5mC]*dA*dA*eT*eG*e[5mC]*eT*e[5mC]) [compound 416556] | 53
416557 (antisense eT*e[5mC]*e[5mC]*e[5mC]*eA*dG*dG*d[5mC]*dA*dA*dA*dG*d[5mC]*dT*dG*e[5mC]*eT*e[5mC]*eA*eG) [compound 416557] | 56
416558 (antisense eT*eG*eA*e[5mC]*eA*dG*d[5mC]*dA*d[5mC]*dG*dA*dA*dG*d[5mC]*d[5mC]*e[5mC]*eA*eG*eA*eG) [compound 416558] | 19
416559 (antisense eG*e[5mC]*e[5mC]*eA*eT*dT*dT*d[5mC]*dT*dA*dG*dG*dT*d[5mC]*dT*eG*e[5mC]*eA*eG*eG) [compound 416559] | 25
416560 (antisense eT*eA*eA*eA*eA*d[5mC]*dT*dT*dT*dA*dT*dT*dT*dA*d[5mC]*eA*eA*eG*eA*eG) [compound 416560] | 0
416561 (antisense eG*eG*eT*eG*eT*dG*dT*dT*d[5mC]*d[5mC]*d[5mC]*dA*dT*dA*dA*eA*eA*e[5mC]*eT*eT) [compound 416561] | 16
416562 (antisense eA*eA*eA*eG*e[5mC]*dA*dG*dA*dG*d[5mC]*d[5mC]*dA*dG*d[5mC]*dT*e[5mC]*eT*eG*eA*e[5mC]) [compound 416562] | 12
416563 (antisense eG*e[5mC]*e[5mC]*eT*eG*d[5mC]*dA*dT*dT*dT*d[5mC]*d[5mC]*d[5mC]*dA*dT*eT*eG*eG*e[5mC]*eA) [compound 416563] | 0
416564 (antisense eG*e[5mC]*e[5mC]*eA*e[5mC]*dT*d[5mC]*dA*d[5mC]*dA*dG*dA*dA*dA*dG*e[5mC]*eT*eG*eG*eA) [compound 416564] | 0
416565 (antisense e[5mC]*eA*eG*eG*eA*dT*dG*d[5mC]*dT*d[5mC]*dA*dT*dG*dG*d[5mC]*eA*eG*eA*e[5mC]*eA) [compound 416565] | 0
416566 (antisense eG*eT*eT*eT*eG*dT*dA*dT*dG*dG*dA*dG*dA*dG*dA*e[5mC]*e[5mC]*eA*eA*eT) [compound 416566] | 0
416567 (antisense eT*eG*eG*eT*eG*dG*d[5mC]*dA*d[5mC]*d[5mC]*dA*dG*dA*dT*dG*eT*e[5mC]*eT*eG*eA) [compound 416567] | 2
416568 (antisense e[5mC]*eA*eT*eT*eG*dT*dG*d[5mC]*d[5mC]*dT*dG*dG*d[5mC]*dA*d[5mC]*eA*e[5mC]*eA*eG*eG) [compound 416568] | 14
416569 (antisense eG*e[5mC]*e[5mC]*eT*eG*dG*dT*dG*dT*dG*d[5mC]*dA*d[5mC]*dA*d[5mC]*eA*eT*eT*eG*eT) [compound 416569] | 12

same assay, conditions: HepB3 cells; gapmers targeted to nucleobases 11830 to 11869 of SEQ ID NO: 1 (Table 9)

Substance | % Inhibition of human Factor 7 mRNA levels [%]
422088 (antisense eT*e[5mC]*eA*eG*eG*dG*d[5mC]*dT*dG*dG*dT*dT*dT*dT*dG*eG*eA*eG*eG*eA) [compound 422088] | 8
422089 (antisense eG*eT*e[5mC]*eA*eG*dG*dG*d[5mC]*dT*dG*dG*dT*dT*dT*dT*eG*eG*eA*eG*eG) [compound 422089] | 22
422090 (antisense eG*eG*eT*e[5mC]*eA*dG*dG*dG*d[5mC]*dT*dG*dG*dT*dT*dT*eT*eG*eG*eA*eG) [compound 422090] | 42
422091 (antisense eT*eG*eG*eT*e[5mC]*dA*dG*dG*dG*d[5mC]*dT*dG*dG*dT*dT*eT*eT*eG*eG*eA) [compound 422091] | 42
422092 (antisense eA*eT*eG*eG*eT*d[5mC]*dA*dG*dG*dG*d[5mC]*dT*dG*dG*dT*eT*eT*eT*eG*eG) [compound 422092] | 36
422093 (antisense eA*eA*eT*eG*eG*dT*d[5mC]*dA*dG*dG*dG*d[5mC]*dT*dG*dG*eT*eT*eT*eT*eG) [compound 422093] | 42
422094 (antisense e[5mC]*eA*eA*eT*eG*dG*dT*d[5mC]*dA*dG*dG*dG*d[5mC]*dT*dG*eG*eT*eT*eT*eT) [compound 422094] | 48
422095 (antisense eA*e[5mC]*eA*eA*eT*dG*dG*dT*d[5mC]*dA*dG*dG*dG*d[5mC]*dT*eG*eG*eT*eT*eT) [compound 422095] | 60
422097 (antisense eG*eA*eG*eA*e[5mC]*dA*dA*dT*dG*dG*dT*d[5mC]*dA*dG*dG*eG*e[5mC]*eT*eG*eG) [compound 422097] | 59
422098 (antisense eG*eG*eA*eG*eA*d[5mC]*dA*dA*dT*dG*dG*dT*d[5mC]*dA*dG*eG*eG*e[5mC]*eT*eG) [compound 422098] | 53
422099 (antisense eA*eG*eG*eA*eG*dA*d[5mC]*dA*dA*dT*dG*dG*dT*d[5mC]*dA*eG*eG*eG*e[5mC]*eT) [compound 422099] | 48
422100 (antisense eG*eA*eG*eG*eA*dG*dA*d[5mC]*dA*dA*dT*dG*dG*dT*d[5mC]*eA*eG*eG*eG*e[5mC]) [compound 422100] | 59
422101 (antisense eT*eG*eA*eG*eG*dA*dG*dA*d[5mC]*dA*dA*dT*dG*dG*dT*e[5mC]*eA*eG*eG*eG) [compound 422101] | 42

same assay, conditions: HepB3 cells; gapmers targeted to nucleobases 15188 to 15211 of SEQ ID NO: 1 (Table 13)

Substance | % Inhibition of human Factor 7 mRNA levels [%]
422085 (antisense eG*e[5mC]*eA*eT*eG*dG*dT*dG*dA*dT*dG*d[5mC]*dT*dT*d[5mC]*eT*eG*eA*eA*eT) [compound 422085] | 70
